In EP0863214A2, “Reporter gene construct for measuring G protein coupled receptor activation” (SMITHKLINE BEECHAM CORPORATION, priority 1997, dated 1998):
Ends that are not written are not given here.

System: HEK 293 cells transfected with MREII VIPII
Format: cell-based, Human
Conditions: wild-type HEK 293 cells or HEK 293 cells expressing the porcine CGRP receptor; endogenous receptors or direct activation of adenylyl cyclase; in the presence of IBMX
Method: Day 1: HEK293 cells at a density of 4.5x10^6/T-75 flask in Earl's Minimum Essential Medium (EMEM) supplemented with 10% fetal bovine serum and 2 mM glutamine were incubated overnight in a humidified tissue culture incubator at 37°C, 5% CO2.
Day 2: MREII VIPII DNA (7.8 µg) was mixed with 780 µl of serum free EMEM to produce Solution A. Lipofectamine (23.1 µl; Gibco-BRL) was mixed with 780 µl of serum EMEM to produce Solution B. Solutions A and B were then mixed gently and incubate at room temperature for 15-45 minutes. Cells were then rinsed with 15 ml of serum free EMEM and 6.25 ml of serum free EMEM was added. Combined solutions (A + B) were overlayed and the flask was placed in a tissue culture incubator for 5 hours. Media was replaced with 15 ml of EMEM/10% serum/ 2 mM glutamine and stored in the tissue culture incubator.
Day 3: Ninety-six well tissue culture plates were treated with Matrigel (50 µl/well diluted 1/50 with phosphate buffered saline (PBS); Collaborative Biomedical Products) for > 1 hour. Matrigel solution was then removed and the plate was transfected with HEK 293 cells at a cell density of 2.6 x 10^4/well in 100 µl of supplemented EMEM. […] Cells were then incubated for 6 hours in a humidified tissue culture incubator at 37°C, 5% CO2. Media was removed and cells were washed with 50 µl of PBS.
Cell lysis solution (50 µl; Promega) supplemented with AEBSF (0.24 mg/ml), pepstatin, leupeptin, and aprotinin (5µg/ml each), and DNAse I (50 µg/ml) was added and extracts were frozen. Ten microliters of thawed extract were added to assay plates along with 50 µl of reconstituted luciferase assay reagent (Promega) using a luminometer autoinjector (Dynex MLX) and samples were read. Luciferase activity is expressed as a fold enhancement over the basal luciferase activity expressed in cells that have not been challenged with agonist, IBMX, TPA, or forskolin.

Nc1ncnc2c1ncn2[C@@H]1O[C@H](COP(=O)(O)OP(=O)(O)OP(=O)(O)O)[C@@H](O)[C@H]1O [ATP]
Luciferase stimulation: did not stimulate luciferase induction

calcitonin (CGNLSTCMLGTYTQDFNKFHTFPQTAIGVGAP; not fully specified (C-terminus, bridges); ends and bridges not checked; UniProt P01258 85-116, looked up)
Luciferase stimulation: Luciferase stimulation was observed

Nc1ncnc2c1ncn2[C@@H]1O[C@H](CO)[C@@H](O)[C@H]1O [adenosine]
Luciferase stimulation: did not stimulate luciferase induction

endothelin (CSCSSLMDKECVYFCHLDIIW; not fully specified (bridges); ends and bridges not checked; UniProt P05305 53-73, looked up)
Luciferase stimulation: did not stimulate luciferase induction

VIP (HSDAVFTDNYTRLRKQMAVKKYLNSILN; not fully specified (C-terminus); ends and bridges not checked; UniProt P01282 125-152, looked up)
Luciferase stimulation: Luciferase stimulation was observed

C[N+](C)(C)CCOC(N)=O [carbachol]
Luciferase stimulation: did not stimulate luciferase induction

CCCCC[C@H](O)/C=C/[C@H]1[C@H](O)CC(=O)[C@@H]1C/C=C\CCCC(=O)O [PGE2]
Luciferase stimulation: Luciferase stimulation was observed
